Legend:
[1] = system: corn; test: Test A postemergence; format: in vivo, Zea mays
How it was run: (§1)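 Growth medium: loam soil blended with sand. Preemergence treatment used a directed soil spray right after planting; postemergence treatment targeted seedlings at one to two leaves (2–10 cm height). Response was judged by eye relative to untreated plants about 10 days later on a 0–100 control scale.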

[2] = system: wheat; test: Test A postemergence; format: in vivo, Triticum aestivum
How it was run: as §1

[3] = system: wheat; test: Test A preemergence; format: in vivo, Triticum aestivum
How it was run: as §1

[4] = system: barnyardgrass; test: Test A preemergence; format: in vivo, Echinochloa crus-galli; settings: 0 to 100 scale
How it was run: as §1

[5] = system: foxtail, giant; test: Test A postemergence; format: in vivo, Setaria faberii
Source text: (§2) Seeds of plant species selected from barnyardgrass (Echinochloa crus-galli), kochia (Kochia scoparia), common ragweed (Ambrosia elation), Italian ryegrass (Lolium multiflorum), crabgrass, large (large crabgrass, Digitaria sanguinalis), foxtail, giant (giant foxtail, Setaria faberii), morningglory (Ipomoea spp.), pigweed (redroot pigweed, Amaranthus retroflexus), velvetleaf (Abutilon theophrasti), wheat (Triticum aestivum), and corn (Zea mays) were planted into a blend of loam soil and sand and treated preemergence with a directed soil spray using test chemicals formulated in a non-phytotoxic solvent mixture which included a surfactant.
(§3) At the same time, plants selected from these crop and weed species and also blackgrass (Alopecurus myosuroides), and galium (catchweed bedstraw, Galium aparine) were planted in pots containing the same blend of loam soil and sand and treated with postemergence applications of test chemicals formulated in the same manner. Plants ranged in height from 2 to 10 cm and were in the one- to two-leaf stage for the postemergence treatment. Treated plants and untreated controls were maintained in a greenhouse for approximately 10 days, after which time all treated plants were compared to untreated controls and visually evaluated for injury. Plant response ratings, summarized in Table A, are based on a 0 to 100 scale where 0 is no effect and 100 is complete control. A dash (-) response means no test result.

[6] = system: crabgrass, large; test: Test A postemergence; format: in vivo, Digitaria sanguinalis
How it was run: as §1

[7] = system: morningglory; test: Test A preemergence; format: in vivo, Ipomoea spp.; settings: 0 to 100 scale
How it was run: as §1

[8] = system: barnyardgrass; test: Test A postemergence; format: in vivo, Echinochloa crus-galli; settings: Postemergence
How it was run: as §1

[9] = system: velvetleaf; test: Test A postemergence; format: in vivo, Abutilon theophrasti
How it was run: as §1

[10] = system: morningglory; test: Test A postemergence; format: in vivo, Ipomoea spp.
How it was run: as §1

[11] = system: foxtail, giant; test: Test A preemergence; format: in vivo, Setaria faberii; settings: 0 to 100 scale
Source text: as §2, §3

[12] = system: crabgrass, large; test: Test A preemergence; format: in vivo, Digitaria sanguinalis; settings: 0 to 100 scale
How it was run: as §1

[13] = system: pigweed; test: Test A preemergence; format: in vivo, Amaranthus retroflexus; settings: Preemergence, 0 to 100 scale, 0 no effect, 100 complete control
How it was run: as §1

[14] = system: pigweed; test: Test A postemergence; format: in vivo, Amaranthus retroflexus
Source text: as §2, §3

[15] = system: corn; test: Test A preemergence; format: in vivo, Zea mays; settings: 0 to 100 scale
Source text: as §2, §3

[16] = system: velvetleaf; test: Test A preemergence; format: in vivo, Abutilon theophrasti; settings: 0 to 100 scale
How it was run: as §1

[17] = Postemergence, 1000 g ai/ha, visual rating after approx. 10 days, 0 to 100 scale (0 no effect, 100 complete control)
[18] = Preemergence, 1000 g ai/ha, 0 to 100 scale, 0 no effect, 100 complete control
[19] = Preemergence, 1000 g ai/ha, 0 no effect, 100 complete control
[20] = 1000 g ai/ha, visual rating after approx. 10 days, 0 to 100 scale (0 no effect, 100 complete control)
[21] = preemergence, 500 g ai/ha, visual injury after approx. 10 days, 0 to 100 scale (0 no effect, 100 complete control)
[22] = Postemergence, 500 g ai/ha, visual rating after approx. 10 days, 0 to 100 scale (0 no effect, 100 complete control)
[23] = postemergence, 125 g ai/ha, about 10 days, visual rating on 0 to 100 scale (0 no effect, 100 complete control)
[24] = Preemergence, 500 g ai/ha, 0 no effect, 100 complete control
[25] = preemergence, 125 g ai/ha, visual injury, approx. 10 days

CCNC(=O)c1cc(C2CC2)n(Cc2cccc(OC(F)(F)F)c2)n1 [Compound 39]
Corn plant response rating [1, 17]: 10 | Wheat plant response rating [2, 17]: 0 | Wheat plant response rating [3, 18]: 0 | Barnyardgrass plant response rating [4, 19]: 0 | Foxtail, Giant plant response rating [5, 17]: 10 | Crabgrass, Large plant response rating [6, 17]: 10 | Morningglory plant response rating [7, 19]: 0 | Barnyardgrass plant response rating [8, 20]: 10 | Velvetleaf plant response rating [9, 17]: 10 | Morningglory plant response rating [10, 17]: 60 | Foxtail, Giant plant response rating [11, 19]: 0 | Crabgrass, Large plant response rating [12, 19]: 10 | Pigweed plant response rating ([13]; 1000 g ai/ha): 0 | Pigweed plant response rating [14, 17]: 40 | Corn plant response rating [15, 19]: 0 | Velvetleaf plant response rating [16, 19]: 0

C#CCNC(=O)c1cc(CC)n(Cc2cccc(OC(F)(F)F)c2)n1 [Compound 54]
Corn plant response rating [1, 17]: 20 | Wheat plant response rating [2, 17]: 10 | Wheat plant response rating [3, 18]: 0 | Barnyardgrass plant response rating [4, 19]: 10 | Foxtail, Giant plant response rating [5, 17]: 10 | Crabgrass, Large plant response rating [6, 17]: 10 | Morningglory plant response rating [7, 19]: 0 | Barnyardgrass plant response rating [8, 20]: 10 | Velvetleaf plant response rating [9, 17]: 60 | Morningglory plant response rating [10, 17]: 70 | Foxtail, Giant plant response rating [11, 19]: 20 | Crabgrass, Large plant response rating [12, 19]: 40 | Pigweed plant response rating ([13]; 1000 g ai/ha): 90 | Pigweed plant response rating [14, 17]: 70 | Corn plant response rating [15, 19]: 0 | Velvetleaf plant response rating [16, 19]: 0

CCc1cc(C(=O)NCC(C)C)nn1Cc1cccc(OC(F)(F)F)c1 [Compound 60]
Corn plant response rating [1, 17]: 30 | Wheat plant response rating [2, 17]: 20 | Wheat plant response rating [3, 18]: 0 | Wheat plant response rating [3, 21]: 0 | Barnyardgrass plant response rating [4, 19]: 30 | Foxtail, Giant plant response rating [5, 17]: 40 | Crabgrass, Large plant response rating [6, 17]: 30 | Morningglory plant response rating [7, 19]: 20 | Barnyardgrass plant response rating [8, 20]: 20 | Velvetleaf plant response rating [9, 17]: 60 | Morningglory plant response rating [10, 17]: 100 | Foxtail, Giant plant response rating [11, 19]: 100 | Crabgrass, Large plant response rating [12, 19]: 90 | Pigweed plant response rating ([13]; 1000 g ai/ha): 90 | Pigweed plant response rating [14, 17]: 60 | Corn plant response rating [15, 19]: 0 | Velvetleaf plant response rating [16, 19]: 0

Cc1cc(C(=O)NCC(F)(F)F)nn1Cc1cccc(C(F)(F)F)c1F [Compound 9]
Corn plant response rating [1, 22]: 0 | Corn plant response rating [1, 23]: 0 | Wheat plant response rating [2, 22]: 0 | Wheat plant response rating [2, 23]: 0 | Wheat plant response rating ([3]; preemergence, 125 g ai/ha, visual injury, 0 to 100 scale, approx. 10 days): 0 | Barnyardgrass plant response rating [4, 24]: 10 | Barnyardgrass plant response rating [4, 25]: 0 | Foxtail, Giant plant response rating [5, 22]: 0 | Foxtail, Giant plant response rating [5, 23]: 0 | Crabgrass, Large plant response rating [6, 22]: 0 | Crabgrass, Large plant response rating [6, 23]: 0 | Morningglory plant response rating [7, 24]: 0 | Morningglory plant response rating [7, 25]: 0 | Barnyardgrass plant response rating ([8]; 125 g ai/ha, 0 to 100 scale, 0 no effect, 100 complete control): 0 | Barnyardgrass plant response rating ([8]; 500 g ai/ha, visual rating after approx. 10 days, 0 to 100 scale (0 no effect, 100 complete control)): 10 | Velvetleaf plant response rating [9, 22]: 0 | Velvetleaf plant response rating [9, 23]: 0 | Morningglory plant response rating [10, 22]: 10 | Morningglory plant response rating [10, 23]: 0 | Foxtail, Giant plant response rating [11, 24]: 20 | Foxtail, Giant plant response rating [11, 25]: 0 | Crabgrass, Large plant response rating [12, 24]: 20 | Crabgrass, Large plant response rating [12, 25]: 0 | Pigweed plant response rating ([13]; 500 g ai/ha): 30 | Pigweed plant response rating [14, 22]: 0 | Pigweed plant response rating [14, 23]: 0 | Corn plant response rating [15, 24]: 0 | Corn plant response rating [15, 25]: 0 | Velvetleaf plant response rating [16, 24]: 0 | Velvetleaf plant response rating [16, 25]: 0

C=CCNC(=O)c1cc(CC)n(Cc2cccc(OC(F)(F)F)c2)n1 [Compound 58]
Corn plant response rating [1, 17]: 20 | Wheat plant response rating [2, 17]: 0 | Wheat plant response rating [3, 18]: 0 | Wheat plant response rating [3, 21]: 0 | Barnyardgrass plant response rating [4, 19]: 10 | Foxtail, Giant plant response rating [5, 17]: 20 | Crabgrass, Large plant response rating [6, 17]: 30 | Morningglory plant response rating [7, 19]: 20 | Barnyardgrass plant response rating [8, 20]: 20 | Velvetleaf plant response rating [9, 17]: 50 | Morningglory plant response rating [10, 17]: 50 | Foxtail, Giant plant response rating [11, 19]: 20 | Crabgrass, Large plant response rating [12, 19]: 70 | Pigweed plant response rating ([13]; 1000 g ai/ha): 70 | Pigweed plant response rating [14, 17]: 60 | Corn plant response rating [15, 19]: 0 | Velvetleaf plant response rating [16, 19]: 0

CCCNC(=O)c1cc(SC)n(Cc2cccc(C(F)(F)F)c2)n1 [Compound 25]
Corn plant response rating [1, 17]: 40 | Wheat plant response rating [2, 17]: 0 | Wheat plant response rating [3, 18]: 0 | Barnyardgrass plant response rating [4, 19]: 0 | Foxtail, Giant plant response rating [5, 17]: 20 | Crabgrass, Large plant response rating [6, 17]: 30 | Morningglory plant response rating [7, 19]: 0 | Barnyardgrass plant response rating [8, 20]: 10 | Velvetleaf plant response rating [9, 17]: 50 | Morningglory plant response rating [10, 17]: 100 | Foxtail, Giant plant response rating [11, 19]: 10 | Crabgrass, Large plant response rating [12, 19]: 20 | Pigweed plant response rating ([13]; 1000 g ai/ha): 0 | Pigweed plant response rating [14, 17]: 10 | Corn plant response rating [15, 19]: 0 | Velvetleaf plant response rating [16, 19]: 0

CCc1cc(C(=O)NC2CC2)nn1Cc1cccc(OC(F)(F)F)c1 [Compound 26]
Corn plant response rating [1, 17]: 70 | Wheat plant response rating [2, 17]: 50 | Wheat plant response rating [3, 18]: 40 | Barnyardgrass plant response rating [4, 19]: 80 | Foxtail, Giant plant response rating [5, 17]: 100 | Crabgrass, Large plant response rating [6, 17]: 90 | Morningglory plant response rating [7, 19]: 90 | Barnyardgrass plant response rating [8, 20]: 70 | Velvetleaf plant response rating [9, 17]: 100 | Morningglory plant response rating [10, 17]: 100 | Foxtail, Giant plant response rating [11, 19]: 100 | Crabgrass, Large plant response rating [12, 19]: 100 | Pigweed plant response rating ([13]; 1000 g ai/ha): 100 | Pigweed plant response rating [14, 17]: 100 | Corn plant response rating [15, 19]: 40 | Velvetleaf plant response rating [16, 19]: 100

— patent US20150105252A1, “SUBSTITUTED PYRAZOLES AS HERBICIDES” (E I DU PONT DE NEMOURS AND COMPANY, priority 2013, published 2015)
